In patent publication US5279939A, “Protein protease inhibitors from streptomyces” (SmithKline Beecham Corporation, priority 1992, dated 1994):

System: trypsin
Experiment: chromogenic trypsin inhibition assay using KABI S2288 substrate
Assay type: biochemical
Conditions: 25 ng trypsin, 410 nm
Protocol: Trypsin inhibitory activity was determined in a chromogenic assay using KABI S2288 as substrate (HO ILE PRO ARG p-nitroanilide.) Scisson of the ARG-p-nitroanilide bond releases p-nitroaniline which absorbs at 410 nm; thus, the extent of cleavage is measured by the increase in absorbance at 410 nm. This assay was used in qualitative manner to determine the inhibitory activity of LTI and LEP-10. Briefly, serial two fold dilutions of either conditioned medium (CM) or ammonium sulfate concentrates (AS) of conditioned medium were mixed with 25 ng of trypsin and the substrate was added. After 30 min at room temperature, the assay was stopped by addition of acetic acid. The assay was carried out in microtiter plates, which were then read in an ELISA reader. Similar samples of PSN were included as controls. […] The data shown are the absorbances measured following cleavage of the chromogenic substrate by trypsin.

plasminostreptin [PSN]
absorbance following cleavage of the chromogenic substrate by trypsin (ammonium sulfate concentrate (AS), reciprocal dilution 1, 30 min, No Inh. control 0.763 (LTI) / 0.751 (PSN)): 0.018 | absorbance following cleavage of the chromogenic substrate by trypsin (ammonium sulfate concentrate (AS), reciprocal dilution 2, 30 min): 0.021 | absorbance following cleavage of the chromogenic substrate by trypsin (ammonium sulfate concentrate (AS), reciprocal dilution 4, 30 min): 0.023 | absorbance following cleavage of the chromogenic substrate by trypsin (ammonium sulfate concentrate (AS), reciprocal dilution 8, 30 min): 0.024 | absorbance following cleavage of the chromogenic substrate by trypsin (ammonium sulfate concentrate (AS), reciprocal dilution 16, 30 min): 0.036 | absorbance following cleavage of the chromogenic substrate by trypsin (ammonium sulfate concentrate (AS), reciprocal dilution 32, 30 min): 0.076 | absorbance following cleavage of the chromogenic substrate by trypsin (conditioned medium (CM), reciprocal dilution 1, 30 min room temperature, No Inh. control 0.898 (LTI) / 0.772 (PSN)): 0.010 | absorbance following cleavage of the chromogenic substrate by trypsin (conditioned medium (CM), reciprocal dilution 2, 30 min): 0.046 | absorbance following cleavage of the chromogenic substrate by trypsin (conditioned medium (CM), reciprocal dilution 4, 30 min): 0.046 | absorbance following cleavage of the chromogenic substrate by trypsin (conditioned medium (CM), reciprocal dilution 8, 30 min): 0.053 | absorbance following cleavage of the chromogenic substrate by trypsin (conditioned medium (CM), reciprocal dilution 16, 30 min): 0.058 | absorbance following cleavage of the chromogenic substrate by trypsin (conditioned medium (CM), reciprocal dilution 32, 30 min): 0.273
